Drawing on patent US11254663B2 (BRISTOL-MYERS SQUIBB COMPANY, priority 2019, dated 2022), this text covers EC50 for 24 compounds.

Structures are written as SMILES.

FXR, sequence (Q96RI1 262-486): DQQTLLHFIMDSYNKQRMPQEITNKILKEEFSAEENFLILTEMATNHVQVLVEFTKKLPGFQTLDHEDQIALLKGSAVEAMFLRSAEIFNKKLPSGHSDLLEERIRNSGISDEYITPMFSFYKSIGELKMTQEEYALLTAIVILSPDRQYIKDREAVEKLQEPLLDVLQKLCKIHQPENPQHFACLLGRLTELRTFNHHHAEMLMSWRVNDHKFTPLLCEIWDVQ

This experiment concerns the target FXR (Homo sapiens (Human), UniProt Q96RI1). Put plainly: FXR EC50 (FXR agonist potency reported with each Example). Format: cell-based.
The term EC50 denotes the concentration that produces a half-maximal response. Low readings indicate a more potent agent, high ones a less potent agent. For `O=C([C@H]1C[C@](O)(C(F)(F)F)C1)N(CC12CCC(c3nc(C4CC4)no3)(CC1)CC2)c1cccc(-c2nc(C(F)F)co2)c1` [Example 42, (1s, 3s)-N-((4-(3-cyclopropyl-1,2,4-oxadiazol-5-yl)bicyclo[2.2.2]octan-1-yl)methyl)-N-(3-(4-(difluoromethyl)oxazol-2-yl)phenyl)-3-hydroxy-3-(trifluoromethyl)cyclobutane-1-carboxamide], the midpoint of the response, the EC50, lay at 613 nM. The value for `CC(C)(C)c1noc(C23CCC(CN(C(=O)C45CC(F)(C4)C5)c4cccc(-c5nc(C6CC6)no5)c4)(CC2)CC3)n1` [Example 88, N-((4-(3-(tert-butyl)-1,2,4-oxadiazol-5-yl)bicyclo[2.2.2]octan-1-yl)methyl)-N-(3-(3-cyclopropyl-1,2,4-oxadiazol-5-yl)phenyl)-3-fluorobicyclo[1.1.1]pentane-1-carboxamide] was 86 nM; that for `COc1ncc(C23CCC(CN(C(=O)C45CC(F)(C4)C5)c4cccc(-c5nc(C6CC6)no5)c4)(CC2)CO3)cn1` [Example 140, N-(3-(3-Cyclopropyl-1,2,4-oxadiazol-5-yl)phenyl)-3-fluoro-N-((1-(2-methoxypyrimidin-5-yl)-2-oxabicyclo[2.2.2]octan-4-yl)methyl)bicyclo[1.1.1]pentane-1-carboxamide] was 582 nM. The value for `CCOc1nnc(-c2cccc(N(CC34CCC(c5nc(C6CC6)no5)(CC3)CC4)C(=O)C3CC(C(F)F)C3)c2)o1` (stereo not drawn) [Example 56, N-((4-(3-cyclopropyl-1,2,4-oxadiazol-5-yl)bicyclo[2.2.2]octan-1-yl)methyl)-3-(difluoromethyl)-N-(3-(5-ethoxy-1,3,4-oxadiazol-2-yl)phenyl)cyclobutane-1-carboxamide] was 275 nM; that for `CC1(NC(=O)N(CC23CCC(c4nc(C5CC5)no4)(CC2)CC3)c2cccc(-c3nc(C4CC4)no3)c2)CC1` [Example 94, 1-((4-(3-cyclopropyl-1,2,4-oxadiazol-5-yl)bicyclo[2.2.2]octan-1-yl)methyl)-1-(3-(3-cyclopropyl-1,2,4-oxadiazol-5-yl)phenyl)-3-(1-methylcyclopropyl)urea] was 265 nM. The value for `O=C(N(CC12CCC(c3nc(C4CC4)no3)(CC1)CC2)c1cccc(-c2cnn(S(=O)(=O)C3CC3)c2)c1)C12CC(F)(C1)C2` [Example 158, N-((4-(3-cyclopropyl-1,2,4-oxadiazol-5-yl)bicyclo[2.2.2]octan-1-yl)methyl)-N-(3-(1-(cyclopropylsulfonyl)-1H-pyrazol-4-yl)phenyl)-3-fluorobicyclo[1.1.1]pentane-1-carboxamide] was 43 nM; that for `CC(F)(F)c1nc(-c2cccc(N(CC34CCC(c5nc(C6CC6)no5)(CC3)CC4)C(=O)C34CC(F)(C3)C4)c2)no1` [Example 112, N-((4-(3-cyclopropyl-1,2,4-oxadiazol-5-yl)bicyclo[2.2.2]octan-1-yl)methyl)-N-(3-(5-(1,1-difluoroethyl)-1,2,4-oxadiazol-3-yl)phenyl)-3-fluorobicyclo[1.1.1]pentane-1-carboxamide] was 68 nM; that for `COc1ccc(C23CCC(CN(C(=O)C4CC(F)(F)C4)c4cccc(-c5nc(C6CC6)no5)c4)(CC2)CO3)cc1` [Example 129, N-(3-(3-Cyclopropyl-1,2,4-oxadiazol-5-yl)phenyl)-3,3-difluoro-N-((1-(4-methoxyphenyl)-2-oxabicyclo[2.2.2]octan-4-yl)methyl)cyclobutane-1-carboxamide] was 1140 nM.

For the compound `O=C(C1CCC(F)(F)C1)N(CC12CCC(c3nc(C4CC4)no3)(CC1)CC2)c1cccc(-c2nc(C3CC3)no2)c1` (stereo not drawn) [Example 11, N-((4-(3-cyclopropyl-1,2,4-oxadiazol-5-yl)bicyclo[2.2.2]octan-1-yl)methyl)-N-(3-(3-cyclopropyl-1,2,4-oxadiazol-5-yl)phenyl)-3,3-difluorocyclopentane-1-carboxamide], the midpoint of the response, the EC50, lay at 282 nM. The value for `CC(C)(C)c1noc(C23CCC(CN(C(=O)C45CC(F)(C4)C5)c4cccc(-c5cnn(S(=O)(=O)C6CC6)c5)c4)(CC2)OC3)n1` [Example 208, N-((4-(3-(tert-butyl)-1,2,4-oxadiazol-5-yl)-2-oxabicyclo[2.2.2]octan-1-yl)methyl)-N-(3-(1-(cyclopropylsulfonyl)-1H-pyrazol-4-yl)phenyl)-3-fluorobicyclo[1.1.1]pentane-1-carboxamide] was 618 nM; that for `O=C(N(CC12CCC(c3noc(C(F)F)n3)(CC1)CC2)c1cccc(-c2nnc(C3CC3)o2)c1)C12CC(F)(C1)C2` [Example 156, N-(3-(5-cyclopropyl-1,3,4-oxadiazol-2-yl)phenyl)-N-((4-(5-(difluoromethyl)-1,2,4-oxadiazol-3-yl)bicyclo[2.2.2]octan-1-yl)methyl)-3-fluorobicyclo[1.1.1]pentane-1-carboxamide] was 103 nM; that for `O=C(C1CC(F)(F)C1)N(CC12CCC(c3nc(C4CC4)no3)(CC1)OC2)c1cccc(-c2nc(C3CC3)no2)c1` [Example 197, N-((1-(3-cyclopropyl-1,2,4-oxadiazol-5-yl)-2-oxabicyclo[2.2.2]octan-4-yl)methyl)-N-(3-(3-cyclopropyl-1,2,4-oxadiazol-5-yl)phenyl)-3,3-difluorocyclobutane-1-carboxamide] was 965 nM. Then `CC(C)c1nc(-c2cccc(N(CC34CCC(c5ccc(C(F)(F)F)cn5)(CC3)CC4)C(=O)C34CC(F)(C3)C4)c2)no1` [Example 187, 3-fluoro-N-(3-(5-isopropyl-1,2,4-oxadiazol-3-yl)phenyl)-N-((4-(5-(trifluoromethyl)pyridin-2-yl)bicyclo[2.2.2]octan-1-yl)methyl)bicyclo[1.1.1]pentane-1-carboxamide], with 605 nM; and `O=C(N1CCCC1)N(CC12CCC(c3nc(C4CC4)no3)(CC1)CC2)c1cccc(-c2nc(C3CC3)no2)c1` [Example 91, N-((4-(3-cyclopropyl-1,2,4-oxadiazol-5-yl)bicyclo[2.2.2]octan-1-yl)methyl)-N-(3-(3-cyclopropyl-1,2,4-oxadiazol-5-yl)phenyl)pyrrolidine-1-carboxamide], with 322 nM. Then `CCc1noc(-c2cccc(N(CC34CCC(c5ccc(C(C)(C)C#N)cc5)(CC3)OC4)C(=O)C3CCC3)c2)n1` [Example 48, N-((1-(4-(2-cyanopropan-2-yl)phenyl)-2-oxabicyclo[2.2.2]octan-4-yl)methyl)-N-(3-(3-ethyl-1,2,4-oxadiazol-5-yl)phenyl)cyclobutanecarboxamide], with 299 nM; and `O=C(N(CC12CCC(c3nc(C4CC4)no3)(CC1)CC2)c1cccc(-c2nc(CCl)co2)c1)C12CC(F)(C1)C2` [Example 14, N-(3-(4-(chloromethyl)oxazol-2-yl)phenyl)-N-((4-(3-cyclopropyl-1,2,4-oxadiazol-5-yl)bicyclo[2.2.2]octan-1-yl)methyl)-3-fluorobicyclo[1.1.1]pentane-1-carboxamide], with 166 nM. Compound `O=C(N(CC12CCC(c3nc(C4CC4)cs3)(CC1)CC2)c1cccc(-c2cnc(C3CC3)o2)c1)C12CC(F)(C1)C2` [Example 97, N-(3-(2-cyclopropyloxazol-5-yl)phenyl)-N-((4-(4-cyclopropylthiazol-2-yl)bicyclo[2.2.2]octan-1-yl)methyl)-3-fluorobicyclo[1.1.1]pentane-1-carboxamide] yielded a concentration for a half-maximal effect (EC50) of 70 nM. `CN(C)[C@H]1CCN(C(=O)N(CC23CCC(c4nc(C5CC5)no4)(CC2)CC3)c2cccc(-c3nc(C4CC4)no3)c2)C1` [Example 93, (S)—N-((4-(3-cyclopropyl-1,2,4-oxadiazol-5-yl)bicyclo[2.2.2]octan-1-yl)methyl)-N-(3-(3-cyclopropyl-1,2,4-oxadiazol-5-yl)phenyl)-3-(dimethylamino)pyrrolidine-1-carboxamide] yielded a 50% effective concentration (EC50) of 2690 nM. The value for `O=C(C1CC(C(F)F)C1)N(CC12CCC(c3nc(C4CC4)no3)(CC1)OC2)c1cccc(-c2cc(C3CC3)on2)c1` (stereo not drawn) [Example 201, N-((1-(3-cyclopropyl-1,2,4-oxadiazol-5-yl)-2-oxabicyclo[2.2.2]octan-4-yl)methyl)-N-(3-(5-cyclopropylisoxazol-3-yl)phenyl)-3-(difluoromethyl)cyclobutane-1-carboxamide] was 384 nM.

For the compound `COCc1coc(-c2cccc(N(CC34CCC(c5nc(C6CC6)no5)(CC3)CC4)C(=O)C3CC(F)(F)C3)c2)n1` [Example 84, N-((4-(3-cyclopropyl-1,2,4-oxadiazol-5-yl)bicyclo[2.2.2]octan-1-yl)methyl)-3,3-difluoro-N-(3-(4-(methoxymethyl)oxazol-2-yl)phenyl)cyclobutane-1-carboxamide], the concentration for a half-maximal effect (EC50) was 948 nM.

With `O=C(C1CCC1)N(CC12CCC(c3nc(CC4CC4)no3)(CC1)CC2)c1cccc(-c2nc(CC3CC3)no2)c1` [Example 64, N-((4-(3-(cyclopropylmethyl)-1,2,4-oxadiazol-5-yl)bicyclo[2.2.2]octan-1-yl)methyl)-N-(3-(3-(cyclopropylmethyl)-1,2,4-oxadiazol-5-yl)phenyl)cyclobutanecarboxamide], the response was half-maximal at 524 nM (EC50). This EC50 lies about 1.8-fold lower than the previous one. Then `COCc1nc(-c2cccc(N(CC34CCC(c5nc(C6CC6)no5)(CC3)CC4)C(=O)C34CC(F)(C3)C4)c2)cs1` [Example 72, N-((4-(3-cyclopropyl-1,2,4-oxadiazol-5-yl)bicyclo[2.2.2]octan-1-yl)methyl)-3-fluoro-N-(3-(2-(methoxymethyl)thiazol-4-yl)phenyl)bicyclo[1.1.1]pentane-1-carboxamide], with 166 nM; and `O=C(N(CC12CCC(c3nc(C4CC4)no3)(CC1)CC2)c1cccc(-c2ccn(C3COC3)n2)c1)C12CC(F)(C1)C2` [Example 149, N-((4-(3-cyclopropyl-1,2,4-oxadiazol-5-yl)bicyclo[2.2.2]octan-1-yl)methyl)-3-fluoro-N-(3-(1-(oxetan-3-yl)-1H-pyrazol-3-yl)phenyl)bicyclo[1.1.1]pentane-1-carboxamide], with 111 nM; and `Cn1nc(C23CCC(CN(C(=O)C45CC(F)(C4)C5)c4cccc(-c5noc(C(F)F)n5)c4)(CC2)CC3)cc1C1CC1` [Example 168, N-((4-(5-cyclopropyl-1-methyl-1H-pyrazol-3-yl)bicyclo[2.2.2]octan-1-yl)methyl)-N-(3-(5-(difluoromethyl)-1,2,4-oxadiazol-3-yl)phenyl)-3-fluorobicyclo[1.1.1]pentane-1-carboxamide], with 111 nM.
